# Assay results: patent publication US8252793B2, “Bradykinin receptor agonists and uses thereof to treat ocular hypertension and glaucoma” (Alcon Research, Ltd., priority 2010, dated 2012)
# Tests used:
# [1] = target: T1, BK receptors in human ciliary muscle cells (h-CM) (Homo sapiens, UniProt P30411); experiment: Functional assay measuring [Ca2+]i mobilization (FLIPR) in h-CM cells; assay type: cell-based; conditions: class symbols (in μM), read-out: CaM (EC50)
# T1 construct: h-CM cells expressing BK receptors were seeded; endogenous in cells; host or cells: human ciliary muscle (h-CM) cells
# T1 sequence (P30411 1-391): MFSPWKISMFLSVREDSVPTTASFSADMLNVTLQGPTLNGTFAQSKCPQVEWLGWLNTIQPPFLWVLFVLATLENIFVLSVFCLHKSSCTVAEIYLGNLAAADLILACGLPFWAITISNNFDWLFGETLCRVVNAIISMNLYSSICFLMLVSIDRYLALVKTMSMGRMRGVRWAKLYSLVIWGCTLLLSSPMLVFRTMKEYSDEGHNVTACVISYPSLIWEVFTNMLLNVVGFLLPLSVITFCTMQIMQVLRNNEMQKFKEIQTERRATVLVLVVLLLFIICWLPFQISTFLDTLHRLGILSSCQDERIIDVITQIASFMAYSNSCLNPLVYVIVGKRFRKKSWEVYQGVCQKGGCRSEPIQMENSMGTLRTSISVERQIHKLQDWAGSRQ
# Experimental: On the day of the experiment, media was removed, cells were rinsed and 50 μL of serum-free media added. One vial of FLIPR Calcium Assay Kit dye was reconstituted in 50 mL of a FLIPR buffer consisting of Hank's Balanced Salt Solution (HBSS), 20 mM HEPES, and 2.5 mM probenecid, pH 7.4. Cells were loaded with the calcium-sensitive dye by addition of an equal volume (50 μL) to each well of the 96-well plate and incubated with dye for 1 h at 23° C. […] After this time, the test compound plate and cell plate were placed in a Fluorescence Imaging Plate Reader (FLIPR-Tetra®) instrument (Molecular Devices/MDSPharma, Sunnyvale, Calif.). At the beginning of an experimental run, a signal test was performed to check the basal fluorescence signal from the dye-loaded cells and the uniformity of the signal across the plate. […] An aliquot (25 μL) of the test compound was added to the existing 100 μL dye-loaded cells at a dispensing speed of 50 μL/sec. Intracellular calcium mobilization was measured by monitoring real-time changes in cellular fluorescence upon test compound addition. Fluorescence data were collected in real-time at 1.0 sec intervals for the first 60 seconds and at 6.0 second intervals for an additional 120 seconds. Baseline fluorescence readings were normalized across the plate and background-corrected from negative control wells. […] EC50 values were determined by 4-parameter nonlinear curve fitting of the concentration-response curve. Calibration of the instrument was performed using manufacturer's standard procedures.
# [2] = tested on: primary human ciliary muscle cells (h-CM); experiment: Total prostaglandin (PG) release from primary h-CM cells (EIA); assay type: cell-based; conditions: 1 hour at 37° C., class symbols (in μM)
# Experimental: BK agonist compounds of Formula 1 were evaluated for the ability to induce prostaglandin (PG) release from primary human ciliary muscle cells (h-CM). Briefly, h-CM cells were grown to confluence in FNC-coated 24-well culture plates and serum-starved (0.8% FBS) for 24 hours prior to the experiment. Cells were stimulated with a 9-pt concentration-response (0.1 nM-10 μM) of bradykinin or BK agonist for 1 hour at 37° C. with subsequent sample recovery and processing for total PG measurement. Total PG measurement was determined using a total Prostaglandin Screening EIA kit (cat#514012) purchased from Cayman Chemical (Ann Arbor, Mich.). The assay was conducted according to the package insert from the manufacturer.
# [3] = target: T2, recombinant human bradykinin B2 receptor (Homo sapiens, UniProt P30411); experiment: [3H]-BK competition radioligand binding to human cloned B2 receptor (CHO cell membranes); conditions: 0.2 nM [3H]-bradykinin, CHO membranes, 60 min 23° C.; mean ± SEM or single value; Ki from IC50 by Cheng-Prusoff; read-out: [3H]-BK Binding to Human Cloned B2 Receptor (Ki)
# T2 construct: expressed in transfected cells; host or cells: Chinese hamster ovary (CHO) cells, membrane homogenates
# T2 sequence (P30411 1-391): T1 sequence (P30411 1-391)
# Experimental: Chinese hamster ovary (CHO) cell membrane homogenates (2.5 μg protein) expressing the recombinant human bradykinin B2 receptor were incubated for 60 min at 23° C. with 0.2 nM [^3H]-bradykinin (95.5 Ci/mmole, PerkinElmer) in the absence or presence of the test compound in a buffer containing 50 mM Tris/HCl (pH 7.4), 0.2 g/L 1-10-phenanthroline and 0.1% BSA. All reagent and test compound additions to the assay plates were made using Biomek 3000 robotic workstations (Beckman Instruments, Fullerton, Calif.). Nonspecific binding was determined in the presence of 1 μM unlabeled bradykinin. Following the incubation, the assay was terminated by rapid filtration under vacuum through glass fiber filters (GF/C, PerkinElmer) presoaked with 0.3% polyethyleneimine and rinsed several times with an ice-cold 50 mM Tris-HCl buffer using a 96-sample cell harvester (Tomtec). The filters were air-dried and the radioactivity counted in a beta-scintillation counter (Topcount, PerkinElmer) using a scintillation cocktail (Microscint 20, PerkinElmer) (Sharif and Whiting, Neurochem. Int. 18: 89-96, 1991). Competitive binding inhibition curves were generated using a 7-point concentration—response of test compound in duplicate. Bradykinin peptide was also tested as an internal control in the assay. The data were analyzed using nonlinear, iterative curve-fitting to obtain the potency and intrinsic activities of the test agents as previously described (Sharif et al. J. Pharmacol. Exp. Ther. 286: 1094-1102, 1998; Sharif et al. Invest Ophthalmol. Vis. Sci. 39:2562-2571, 1998; Kelly et al. J. Pharmacol. Exp. Ther. 304: 238-245, 2003). Determined IC50 values were converted to Ki values using the standard Cheng-Prusoff equation.
SMILES,EC50 [1] [µM],"EC50 ([2]; Homo sapiens, 1 h) [µM]",Ki [3] [nM],EC50 [2] [µM]
"COCCNC(=O)c1ccc(CCC(=O)NCC(=O)N(C)c2ccc(Cl)c(COc3cccc4c3nc(OC)n4Cc3ccccn3)c2Cl)cc1 [Compound 1, 4-(3-((2-((2,4-dichloro-3-(((2-methoxy-1-(pyridin-2-ylmethyl)-1H-benzo[d]imidazol-4-yl)oxy)methyl)phenyl)(methyl)amino)-2-oxoethyl)amino)-3-oxopropyl)-N-(2-methoxyethyl)benzamide]",< 0.1,< 0.1,54,
"COC(=O)Nc1ccc(CCC(=O)NCC(=O)N(C)c2ccc(Cl)c(COc3cccc4c3nc(OC)n4Cc3ccccn3)c2Cl)cn1 [Compound 2, methyl (5-(3-((2-((2,4-dichloro-3-(((2-methoxy-1-(pyridin-2-ylmethyl)-1H-benzo[d]imidazol-4-yl)oxy)methyl)phenyl)(methyl)amino)-2-oxoethyl)amino)-3-oxopropyl)pyridin-2-yl)carbamate]",< 0.1,< 0.1,101,
"COc1nc2c(OCc3c(C)ccc(N(C)C(=O)CNC(=O)CCc4cnc5[nH]c(=O)oc5c4)c3C)cccc2n1Cc1ccccn1 [Compound 3, N-(2-((3-(((2-methoxy-1-(pyridin-2-ylmethyl)-1H-benzo[d]imidazol-4-yl)oxy)methyl)-2,4-dimethylphenyl)(methyl)amino)-2-oxoethyl)-3-(2-oxo-2,3-dihydrooxazolo[4,5-b]pyridin-6-yl)propanamide]",< 0.1,> 1,273,
"COC(=O)Nc1ccc(CCC(=O)NCC(=O)N(C)c2ccc(C)c(COc3cccc4c3nc(OC)n4Cc3ccccn3)c2C)cn1 [Compound 4, methyl (5-(3-((2-((3-(((2-methoxy-1-(pyridin-2-ylmethyl)-1H-benzo[d]imidazol-4-yl)oxy)methyl)-2,4-dimethylphenyl)(methyl)amino)-2-oxoethyl)amino)-3-oxopropyl)pyridin-2-yl)carbamate]",0.1 to 1,> 1,158,
"CNC(=O)N1CCN(CCC(=O)NCC(=O)N(C)c2ccc(Cl)c(COc3cccc4c3nc(OC)n4Cc3ccccn3)c2Cl)CC1 [Compound 7, 4-(3-((2-((2,4-dichloro-3-(((2-methoxy-1-(pyridin-2-ylmethyl)-1H-benzo[d]imidazol-4-yl)oxy)methyl)phenyl)(methyl)amino)-2-oxoethyl)amino)-3-oxopropyl)-N-methylpiperazine-1-carboxamide]",< 0.1,< 0.1,118 ± 2,
"CNC(=O)C1CCN(CC(=O)NCC(=O)N(C)c2ccc(Cl)c(COc3cccc4c3nc(OC)n4Cc3ccccn3)c2Cl)CC1 [Compound 13, 1-(2-((2-((2,4-dichloro-3-(((2-methoxy-1-(pyridin-2-ylmethyl)-1H-benzo[d]imidazol-4-yl)oxy)methyl)phenyl)(methyl)amino)-2-oxoethyl)amino)-2-oxoethyl)-N-methylpiperidine-4-carboxamide]",0.1 to 1,> 1,,
"CNC(=O)c1ccc(CCC(=O)NCC(=O)N(C)c2ccc(Cl)c(COc3cccc4c3nc(OC)n4Cc3ccccn3)c2Cl)nc1 [Compound 43, 6-(3-((2-((2,4-dichloro-3-(((2-methoxy-1-(pyridin-2-ylmethyl)-1H-benzo[d]imidazol-4-yl)oxy)methyl)phenyl)(methyl)amino)-2-oxoethyl)amino)-3-oxopropyl)-N-methylnicotinamide]",< 0.1,< 0.1,,
"CCOC(=O)COc1cc(C)nc2c(OCc3c(Cl)ccc(N(C)C(=O)CNC(=O)CCc4ccc(C(=O)NC)nc4)c3Cl)cccc12 [Compound 46, ethyl 2-((8-((2,6-dichloro-3-(N-methyl-2-(3-(6-(methylcarbamoyl)pyridin-3-yl)propanamido)acetamido)benzyl)oxy)-2-methylquinolin-4-yl)oxy)acetate]",0.1 to 1,< 0.1,,
"CNC(=O)c1ccc(CCC(=O)NCC(=O)N(C)c2ccc(Cl)c(COc3cccc4c(OCc5ccccc5F)cc(C)nc34)c2Cl)cn1 [Compound 47, 5-(3-((2-((2,4-dichloro-3-(((4-((2-fluorobenzyl)oxy)-2-methylquinolin-8-yl)oxy)methyl)phenyl)(methyl)amino)-2-oxoethyl)amino)-3-oxopropyl)-N-methylpicolinamide]",0.1 to 1,< 0.1,,
"CNC(=O)c1ccc(CCC(=O)NCC(=O)N(C)c2ccc(Cl)c(COc3cccc4c(OCc5cn(C)cn5)cc(C)nc34)c2Cl)cn1 [Compound 48, 5-(3-((2-((2,4-dichloro-3-(((2-methyl-4-((1-methyl-1H-imidazol-4-yl)methoxy)quinolin-8-yl)oxy)methyl)phenyl)(methyl)amino)-2-oxoethyl)amino)-3-oxopropyl)-N-methylpicolinamide]",< 0.1,0.1 to 1,,
COc1nc2c(OCc3c(Cl)ccc(N(C)C(=O)CNC(=O)CN4CCC(NC(C)=O)C4)c3Cl)cccc2n1Cc1ccccn1 (stereo not drawn) [Compound 66],< 0.1,0.1 to 1,,
COc1nc2c(OCc3c(Cl)ccc(N(C)C(=O)CNC(=O)CCc4ccc(N)nc4)c3Cl)cccc2n1Cc1ccccn1 [Compound 67],< 0.1,> 1,,
COc1nc2c(OCc3c(Cl)ccc(N(C)C(=O)CNC(=O)CCCN4CCNC(=O)C4)c3Cl)cccc2n1Cc1ccccn1 [Compound 72],< 0.1,> 1,,
"CNC(=O)c1ccc(CCC(=O)NCC(=O)N(C)c2ccc(Cl)c(COc3cccc4c3nc(OC)n4Cc3cn(C)cn3)c2Cl)cc1 [Compound 78, 4-(3-((2-((2,4-dichloro-3-(((2-methoxy-1-((1-methyl-1H-imidazol-4-yl)methyl)-1H-benzo[d]imidazol-4-yl)oxy)methyl)phenyl)(methyl)amino)-2-oxoethyl)amino)-3-oxopropyl)-N-methylbenzamide]",< 0.1,< 0.1,,
COc1nc2c(OCc3c(Cl)ccc(N(C)C(=O)CNC(=O)CCc4ccc(C(=O)NCCO)nc4)c3Cl)cccc2n1Cc1cn(C)cn1 [Compound 85],< 0.1,< 0.1,,
CNC(=O)c1ccc(CCC(=O)NCC(=O)N(C)c2ccc(Cl)c(COc3cccc4c3nc(OC)n4Cc3cn(C)cn3)c2Cl)cn1 [Compound 86],< 0.1,< 0.1,,
CNC(=O)c1ccc(CCC(=O)NCC(=O)N(C)c2ccc(Cl)c(COc3cccc4c(OCc5cn(C)cn5)cc(C)nc34)c2Cl)cn1 [Compound 87],0.1 to 1,,,< 0.1
